Results as given in US8993606B2, “Oral formulations for treating metal overload” (FerroKin BioSciences, Inc., priority 2011, dated 2015).
Like-named read-outs stand apart in the source and are kept apart here.

Key:
[1] = Example 5: single-dose study in iron-overloaded human subjects (PK); format: in vivo; settings: for Tmax / AUC(0-inf) / AUC(0-t) / Cmax / half-life: human, plasma
Procedure: Example 5 was a single-dose, escalating study in iron-overloaded subjects. Men between the ages of 18-50 years qualified to participate if they were able to voluntarily give consent and had transfusional overload requiring treatment with an iron chelator and were willing to discontinue their chelation for a period of at least 7 days prior to screening and during the study. Eligible subjects had serum ferritin levels>300 ng/mL and ≦5000 ng/mL. Subjects had blood pressure in the normal range, ECG within normal limits and tested negative for drugs of abuse. Subjects were also HIV and Hepatitis B negative and agreed to use an approved method of contraception during the study.
The objectives of this study were to assess the safety, tolerability, and pharmacokinetics of ascending single doses of Compound 1. Additionally, dose proportionality and pharmacodynamics of Compound 1 were assessed. Four doses of Compound 1 (6, 10, 16, and 32 mg/kg), in capsule form, were evaluated in this study. Each dose level was tested in a single subject, with appropriate evaluation of safety done prior to escalating the dose. Following screening, the first subject was dosed and then confined to the clinical research unit for 24 hours to conduct safety and pharmacokinetic assessments. The subject was released from the clinic on Day 2 and returned daily for follow-up visits for 5 days post-dosing. This process was followed for each dose level.
All 4 subjects who received a dose of Compound 1 were included in the analysis of pharmacokinetic parameters.

[2] = tested on: adults with transfusional iron overload; experiment: Example 10: efficacy study, liver iron concentration (LIC); format: in vivo, human; settings: for % with net iron reduction / Mean net change in hepatic iron: first 24 weeks; for LIC, Week 12 / LIC, Week 24 / LIC, Week 48: patients entering extension study
Procedure: In this Example, the safety and efficacy of Compound 1 in adults with transfusional iron overload over 48 weeks of treatment was assessed. Diagnosis and transfusional iron burden of patients (including Asians, Blacks/African Americans, and Whites) at randomization are as follows: 38 patients diagnosed with β-thalassemia major, 2 patients diagnosed with α-thalassemia major, 2 diagnosed with β-thalassemia intermedia (transfusion>7/year), 6 diagnosed with HbE-β thalassemia, and 3 diagnosed with Sickle cell disease. The patients were divided into two dosing groups: 14.5 mg/kg/day and 29 mg/kg/day. Average liver iron content at baseline (mg/g dry weight) was 13.2 with SD 6.64 for the 14.5 mg/kg/day dosing group and 13.9 with SD 7.82 for the 29 mg/kg/day dosing group. Median serum ferritin (ng/ml) was 2564 for the 14.5 mg/kg/day dosing group and 2624 for the 29 mg/kg/day dosing group. Mean pre-transfusion average haemoglobin of previous 3 transfusions (g/dL) was 9.6 (with SD of 0.56) for the 14.5 mg/kg/day dosing group and 9.8 (with SD of 0.79) for the 29 mg/kg/day dosing group. Mean daily transfusion iron intake (mg/kg/d) was about 0.36 (ranging 0.22-0.84) for the 14.5 mg/kg/day dosing group and 0.38 (ranging 0.17-0.60) for the 29 mg/kg/day dosing group. See also FIGS. 7 and 8.

iron-overloaded subjects = experiment: Safety: multiple-dose study in iron-overloaded subjects; format: in vivo, human
Procedure: Twenty iron-overloaded subjects were enrolled and completed the study. Four subjects in each cohort were orally administered 3, 8, 16, or 32 or 40 mg/kg/day of Compound 1 for 7 consecutive days.

[3] = tested on: adult subjects with documented transfusional iron overload; experiment: Safety: ongoing randomized open-label study, 16 or 32 mg/kg/day, transfusional iron overload; format: in vivo, human
Procedure: This study is an ongoing multicenter, randomized, open-label study of adult subjects with documented transfusional iron overload in need of chelation therapy. Subjects received investigational product for 24 weeks with an extension of 72 weeks for the evaluation of long-term safety and efficacy. Subjects were stratified according to transfusional iron intake (transfusion burden) then randomized to receive Compound 1 at 16 or 32 mg/kg/day. The investigational product was administered orally once daily for 24 weeks. At the conclusion of the 24-week dosing period, qualified subjects were allowed to continue receiving Compound 1 for an additional 72 weeks. Dose adjustments from 24 weeks onward are permitted if clinically indicated. Fifty-one subjects enrolled and completed the first 24 weeks of the study; 49 subjects entered the 72-week extension.

[4] = single oral dose 6 mg/kg, subject 1
[5] = single oral dose 10 mg/kg, subject 2
[6] = single oral dose 16 mg/kg, subject 3
[7] = single oral dose 32 mg/kg, subject 4

In the case of `COCCOCCOCCOc1cccc(C2=N[C@@](C)(C(=O)O)CS2)c1O` [Compound 1, (S)-4,5-Dihydro-2-[2-hydroxy-3-(3,6,9-trioxadecyloxy)phenyl]-4-methyl-4-thiazolecarboxylate magnesium hydroxide], the “total fraction of oral dose excreted in urine over 24 hour, average” value ([1]; 4 dose levels) is reported as 39%, the “dose proportionality of Cmax and AUC” value ([1]; 6-32 mg/kg dose range) is reported as “dose-proportional” and the “plasma concentrations at 24 hours post-dose” value ([1]; all subjects, 6, 10, 16 and 32 mg/kg) is reported as < 1 % of Cmax. The Tmax ([1]; single oral dose 6 mg/kg (360 mg), subject 1, read-out: tmax) was 1 h, the AUC(0-inf) [1, 4] was 46300 ng·h/mL and the AUC(0-t) [1, 4] was 45900 ng·h/mL. It also gave a Cmax [1, 4] of 14900 ng/mL, a Tmax ([1]; single oral dose 10 mg/kg (583 mg), subject 2, read-out: tmax) of 0.77 h and an AUC(0-inf) [1, 5] of 69700 ng·h/mL. The AUC(0-t) [1, 5] was 69200 ng·h/mL, the Cmax [1, 5] was 35400 ng/mL and the Tmax ([1]; single oral dose 16 mg/kg (1288 mg), subject 3, read-out: tmax) was 1 h. For the same compound, the AUC(0-inf) [1, 6] was 122000 ng·h/mL, the AUC(0-t) [1, 6] was 122000 ng·h/mL and the Cmax [1, 6] was 38500 ng/mL. For the same compound, the Tmax ([1]; single oral dose 32 mg/kg (2214.4 mg), subject 4, read-out: tmax) was 1 h, the AUC(0-inf) [1, 7] was 159000 ng·h/mL and the AUC(0-t) [1, 7] was 157000 ng·h/mL. It also gave a Cmax [1, 7] of 47600 ng/mL, a half-life ([1]; male, oral, 6-32 mg/kg single dose, read-out: terminal half-life, range) of 16 to 30 h and a half-life ([1]; male, oral, averaged across all dose levels, read-out: mean t1/2 (converted)) of 23.7 h. For the same compound, the Tmax ([1]; male, oral, averaged across all dose levels, read-out: mean tmax) was 0.925 h, the “total fraction of oral dose excreted in urine over 24 hour” value ([1]; range across the 4 dose levels) was 28-51% and the CL/F [1, 4] was 7.9 L/h. For the same compound, the CL/F [1, 5] was 8.4 L/h, the CL/F [1, 6] was 10.6 L/h and the CL/F [1, 7] was 14.1 L/h. For the same compound, the “% with net iron reduction” value ([2]; 14.5 mg/kg) was 29%, the “Mean net change in hepatic iron” value ([2]; 14.5 mg/kg) was 3.1 mg/g-dw and the “% with net iron reduction” value ([2]; 29 mg/kg) was 44%. For the same compound, the “Mean net change in hepatic iron” value ([2]; 29 mg/kg) was −0.3 mg/g-dw, the “LIC, Week 12” value ([2]; initial dose 14.5 mg/kg/day) was 13.7 (1.74) and the “LIC, Week 24” value ([2]; initial dose 14.5 mg/kg/day) was 13.6 (1.94). The “LIC, Week 48” value ([2]; initial dose 14.5 mg/kg/day) was 11.7 (1.46), the “LIC, Week 12” value ([2]; initial dose 29 mg/kg/day) was 13.6 (2.04) and the “LIC, Week 24” value ([2]; initial dose 29 mg/kg/day) was 12.8 (1.79). The “LIC, Week 48” value ([2]; initial dose 29 mg/kg/day) was 11.8 (2.04), the “effect on liver iron concentration in iron overload patients” value ([2]; once daily oral, dose as low as 14.5 mg/kg of body weight) was “reduces liver iron concentration” and the “TEAE QT prolonged” value (iron-overloaded subjects; 1 subject) was 5%. For the same compound, the “TEAE abdominal pain upper” value (iron-overloaded subjects; 1 subject) was 5%, the “TEAE blood urine present” value (iron-overloaded subjects; 1 subject) was 5% and the TEAE chromaturia (iron-overloaded subjects; 1 subject) was 5%. For the same compound, the TEAE dizziness (iron-overloaded subjects; 1 subject) was 5%, the TEAE feeling hot (iron-overloaded subjects; 1 subject) was 5% and the TEAE pruritus (iron-overloaded subjects; 1 subject) was 5%. The TEAE tachycardia (iron-overloaded subjects; 1 subject) was 5%, the TEAE flatulence (iron-overloaded subjects; 2 subjects) was 10% and the tolerability (iron-overloaded subjects; 3, 8, 16, 32 or 40 mg/kg/day for 7 consecutive days) was “generally well tolerated”. The TEAE headache (iron-overloaded subjects; 5 subjects) was 25%, the “TEAE urine color abnormal” value (iron-overloaded subjects; 8 subjects, related to study drug) was 40% and the “subjects with at least 1 TEAE” value (iron-overloaded subjects; 20 subjects, majority mild and unrelated to study drug) was 90%. It also gave a QTcB interval prolongation (iron-overloaded subjects; one subject, Day 7 of treatment, not observed with QTcF) of 20 ms, an SAE recorded (iron-overloaded subjects; subject at 3 mg/kg/day, sickle cell crisis, not related to treatment) of 1 SAE and a TEAE headache ([3]; 5 subjects) of 9.8%. For the same compound, the TEAE increased transaminases ([3]; 8 subjects) was 15.7%, the “Treatment-related gastrointestinal TEAEs” value ([3]; 17 subjects) was 33.3% and the “subjects with at least 1 related TEAE” value ([3]; 31/51 subjects) was 61%. For the same compound, the Elevations in transaminases ([3]; 72 week treatment period) was “not significant”, the Mean serum creatinine ([3]; 72 week treatment period, remained in the normal range) was “did not change from baseline” and the TEAE diarrhea ([3]; N=3) was 5.9%. The TEAE flatulence ([3]; N=6) was 11.8%, the “Any TEAE” value ([3]; Total (N = 51)) was 49 (96.1%) N (%) and the “Creatinine increase >33% and creatinine <=ULN at 2 consecutive post-baseline visits” value ([3]; Total (N = 51)) was 2 (3.9) N (%). For the same compound, the “Creatinine increase >33% and creatinine >ULN at 2 consecutive post-baseline visits” value ([3]; Total (N = 51)) was 0 N (%), the “Creatinine increase and creatinine >ULN at 2 consecutive post-baseline visits” value ([3]; Total (N = 51)) was 1 (2.0) N (%) and the “Serious TEAE” value ([3]; Total (N = 51)) was 5 (9.8%) N (%). The “TEAE Related to Investigational Product” value ([3]; Total (N = 51)) was 31 (60.8%) N (%), the “TEAE Requiring Discontinuation of Study Drug” value ([3]; Total (N = 51)) was 14 (27.5%) N (%) and the serum creatinine levels ([3]; as of Week 48) was “no trends”. For the same compound, the tolerability ([3]; doses tested (8-50 mg/kg/day)) was “generally well tolerated”, the SAEs ([3]; in four subjects, none judged related to treatment) was 10 SAEs and the “severity of all related TEAEs” value ([3]; in vivo) was “mild to moderate”.
